Test results taken from ChEMBL document CHEMBL4665648, “Potent and selective inhibitors of receptor-interacting protein kinase 1 that lack an aromatic back pocket group” (Bioorg Med Chem Lett, 2019).
Calls of active or inactive are those of the source. No cut-off for these calls is given here.

Columns and labels:
[1] = molecular target: Fibroblast growth factor receptor 1 (Homo sapiens) (UniProt P11362); test: Inhibition of recombinant human His-tagged FGFR1 (308 to 731 residues) expressed in baculovirus expression system using Tyr 01 as substrate at 10 uM incubated for 60 mins by Z'-Lyte assay relative to control
Sequence of Fibroblast growth factor receptor 1 (Homo sapiens) (P11362 22-822 limits assumed): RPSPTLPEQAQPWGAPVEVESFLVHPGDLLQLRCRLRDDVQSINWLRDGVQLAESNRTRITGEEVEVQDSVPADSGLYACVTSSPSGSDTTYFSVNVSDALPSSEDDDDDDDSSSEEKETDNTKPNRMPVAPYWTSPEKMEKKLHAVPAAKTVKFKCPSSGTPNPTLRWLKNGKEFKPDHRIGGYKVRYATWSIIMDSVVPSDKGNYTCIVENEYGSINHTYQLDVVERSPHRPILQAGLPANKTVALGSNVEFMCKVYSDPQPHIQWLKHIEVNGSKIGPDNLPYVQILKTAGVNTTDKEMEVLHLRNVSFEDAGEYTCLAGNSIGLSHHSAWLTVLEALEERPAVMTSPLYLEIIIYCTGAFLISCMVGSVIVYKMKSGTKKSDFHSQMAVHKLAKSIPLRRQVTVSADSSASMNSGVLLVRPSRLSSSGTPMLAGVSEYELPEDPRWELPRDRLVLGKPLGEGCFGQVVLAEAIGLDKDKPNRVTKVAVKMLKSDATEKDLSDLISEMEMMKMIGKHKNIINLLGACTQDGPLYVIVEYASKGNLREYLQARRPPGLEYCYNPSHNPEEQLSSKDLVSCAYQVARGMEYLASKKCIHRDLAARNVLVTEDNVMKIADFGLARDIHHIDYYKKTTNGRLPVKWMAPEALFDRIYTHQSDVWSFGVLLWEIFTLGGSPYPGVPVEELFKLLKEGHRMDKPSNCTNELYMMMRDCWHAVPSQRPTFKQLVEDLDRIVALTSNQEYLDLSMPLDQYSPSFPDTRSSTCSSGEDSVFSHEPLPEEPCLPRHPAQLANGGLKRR

[2] = molecular target: Serine/threonine-protein kinase 24 (Homo sapiens) (UniProt Q9Y6E0); test: Inhibition of recombinant human GST-tagged full length MST3 expressed in baculovirus expression system using Ser/Thr 07 as substrate at 10 uM incubated for 60 mins by Z'-lyte assay relative to control
Sequence of Serine/threonine-protein kinase 24 (Homo sapiens) (Q9Y6E0 whole entry, looked up): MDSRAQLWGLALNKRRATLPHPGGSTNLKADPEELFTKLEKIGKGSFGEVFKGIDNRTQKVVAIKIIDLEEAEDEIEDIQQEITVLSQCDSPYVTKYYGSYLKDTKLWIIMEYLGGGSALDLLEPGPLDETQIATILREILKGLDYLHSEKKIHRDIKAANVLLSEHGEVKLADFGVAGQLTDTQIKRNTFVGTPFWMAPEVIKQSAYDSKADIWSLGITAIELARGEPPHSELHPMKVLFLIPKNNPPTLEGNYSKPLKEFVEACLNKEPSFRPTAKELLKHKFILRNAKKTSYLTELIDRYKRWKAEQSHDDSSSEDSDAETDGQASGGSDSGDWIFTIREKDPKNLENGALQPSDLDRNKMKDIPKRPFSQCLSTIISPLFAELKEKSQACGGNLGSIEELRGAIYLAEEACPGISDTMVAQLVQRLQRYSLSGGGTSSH

[3] = molecular target: Ribosomal protein S6 kinase alpha-2 (Homo sapiens) (UniProt Q15349); test: Inhibition of recombinant human GST-tagged full length RSK3 expressed in insect expression system using Ser/Thr 06 as substrate at 10 uM incubated for 60 mins by Z'-Lyte assay relative to control
Sequence of Ribosomal protein S6 kinase alpha-2 (Homo sapiens) (Q15349 whole entry, the tested form may be a part): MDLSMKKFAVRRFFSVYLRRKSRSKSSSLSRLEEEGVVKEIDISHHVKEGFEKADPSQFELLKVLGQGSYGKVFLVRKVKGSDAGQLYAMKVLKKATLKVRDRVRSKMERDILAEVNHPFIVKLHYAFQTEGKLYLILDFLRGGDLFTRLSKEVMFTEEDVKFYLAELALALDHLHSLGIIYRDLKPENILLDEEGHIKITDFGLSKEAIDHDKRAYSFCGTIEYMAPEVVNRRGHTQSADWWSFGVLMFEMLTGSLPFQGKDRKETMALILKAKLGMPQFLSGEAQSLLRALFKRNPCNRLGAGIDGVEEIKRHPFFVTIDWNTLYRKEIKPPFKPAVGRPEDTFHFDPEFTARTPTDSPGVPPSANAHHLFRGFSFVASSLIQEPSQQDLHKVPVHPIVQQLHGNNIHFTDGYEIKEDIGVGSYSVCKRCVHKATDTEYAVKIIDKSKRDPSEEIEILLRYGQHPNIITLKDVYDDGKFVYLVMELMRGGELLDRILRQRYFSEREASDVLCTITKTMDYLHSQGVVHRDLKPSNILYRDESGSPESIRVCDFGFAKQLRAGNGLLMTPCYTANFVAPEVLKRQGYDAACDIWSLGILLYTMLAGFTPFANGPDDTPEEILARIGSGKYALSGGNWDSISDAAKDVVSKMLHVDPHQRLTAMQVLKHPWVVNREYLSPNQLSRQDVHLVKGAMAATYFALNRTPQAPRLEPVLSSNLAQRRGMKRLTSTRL

[4] = molecular target: Ephrin type-A receptor 1 (Homo sapiens) (UniProt P21709); test: Inhibition of recombinant human GST-tagged EPHA1 (568 to 976 residues) expressed in baculovirus expression system using Tyr 02 as substrate at 10 uM incubated for 60 mins by Z'-Lyte assay relative to control
[5] = molecular target: Calcium/calmodulin-dependent protein kinase type IV (Homo sapiens) (UniProt Q16566); test: Inhibition of recombinant human GST-tagged full length CAMK4 expressed in Escherichia coli expression system using Ser/Thr 13 as substrate at 10 uM incubated for 60 mins by Z'-Lyte assay relative to control
[6] = molecular target: Serine/threonine-protein kinase PAK 6 (Homo sapiens) (UniProt Q9NQU5); test: Inhibition of recombinant human His-tagged full length PAK6 expressed in baculovirus expression system using Ser/Thr 20 as substrate at 10 uM incubated for 60 mins by Z'-lyte assay relative to control
[7] = molecular target: Tyrosine-protein kinase Lck (Homo sapiens) (UniProt P06239); test: Inhibition of recombinant human His-tagged full length LCK expressed in baculovirus expression system using Tyr 02 as substrate at 10 uM incubated for 60 mins by Z'-lyte assay relative to control
[8] = molecular target: PAS domain-containing serine/threonine-protein kinase (Homo sapiens) (UniProt Q96RG2); test: Inhibition of recombinant human GST-tagged PASK (879 to 1323 residues) expressed in baculovirus expression system using Ser/Thr 07 as substrate at 10 uM incubated for 60 mins by Z'-lyte assay relative to control
[9] = molecular target: Serine/threonine-protein kinase Sgk2 (Homo sapiens) (UniProt Q9HBY8); test: Inhibition of recombinant human GST-tagged full length SGK2 (54 to 427 residues) expressed in baculovirus expression system using Ser/Thr 06 as substrate at 10 uM incubated for 60 mins by Z'-Lyte assay relative to control
[10] = molecular target: Vascular endothelial growth factor receptor 3 (Homo sapiens) (UniProt P35916); test: Inhibition of recombinant human GST-tagged FLT4 (800 to 1297 residues) expressed in baculovirus expression system using Tyr 04 as substrate at 10 uM incubated for 60 mins by Z'-Lyte assay relative to control
[11] = Half life in Sprague-Dawley rat at 0.5 mg/kg, iv or 2 mg/kg, po; type: ADME, organism-based; conditions: in vivo
[12] = molecular target: Homeodomain-interacting protein kinase 4 (Homo sapiens) (UniProt Q8NE63); test: Inhibition of recombinant human N-terminal GST-tagged HIPK4 expressed in baculovirus expression system using Ser/Thr 18 as substrate at 10 uM incubated for 60 mins by Z'-Lyte assay relative to control
Sequence of Homeodomain-interacting protein kinase 4 (Homo sapiens) (Q8NE63 whole entry, the tested form may be a part): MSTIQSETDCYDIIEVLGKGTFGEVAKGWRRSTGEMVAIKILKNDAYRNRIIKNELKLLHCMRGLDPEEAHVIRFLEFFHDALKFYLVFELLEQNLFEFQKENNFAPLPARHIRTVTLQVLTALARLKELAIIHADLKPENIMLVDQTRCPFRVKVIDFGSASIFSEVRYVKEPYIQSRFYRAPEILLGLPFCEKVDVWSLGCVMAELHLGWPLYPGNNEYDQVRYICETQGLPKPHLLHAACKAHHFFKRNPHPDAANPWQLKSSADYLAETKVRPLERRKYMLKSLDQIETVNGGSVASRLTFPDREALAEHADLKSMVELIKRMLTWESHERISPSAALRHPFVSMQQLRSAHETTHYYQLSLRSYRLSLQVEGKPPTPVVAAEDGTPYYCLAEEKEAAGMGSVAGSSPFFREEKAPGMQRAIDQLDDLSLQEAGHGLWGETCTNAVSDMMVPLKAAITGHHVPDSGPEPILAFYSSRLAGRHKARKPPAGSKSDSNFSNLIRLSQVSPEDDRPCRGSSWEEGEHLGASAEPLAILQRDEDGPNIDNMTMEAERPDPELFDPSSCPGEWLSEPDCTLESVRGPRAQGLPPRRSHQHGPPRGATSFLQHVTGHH

[13] = molecular target: Insulin receptor (Homo sapiens) (UniProt P06213); test: Inhibition of recombinant human GST-tagged InsR (1011 to 1382 residues) expressed in baculovirus expression system using Tyr 01 as substrate at 10 uM incubated for 60 mins by Z'-lyte assay relative to control
[14] = molecular target: Calcium/calmodulin-dependent protein kinase kinase 1 (Homo sapiens) (UniProt Q8N5S9); test: Inhibition of tracer 236 binding to recombinant human GST-tagged full length CAMKK1 expressed in Escherichia coli expression system at 10 uM incubated for 60 mins by Lanthascreen assay relative to control
[15] = molecular target: G protein-coupled receptor kinase 6 (Homo sapiens) (UniProt P43250); test: Inhibition of recombinant human GST-tagged full length GRK6 expressed in baculovirus expression system using Ser/Thr 16 as substrate at 10 uM incubated for 60 mins by Z'-Lyte assay relative to control
Sequence of G protein-coupled receptor kinase 6 (Homo sapiens) (P43250 whole entry, looked up, the tested form may be a part): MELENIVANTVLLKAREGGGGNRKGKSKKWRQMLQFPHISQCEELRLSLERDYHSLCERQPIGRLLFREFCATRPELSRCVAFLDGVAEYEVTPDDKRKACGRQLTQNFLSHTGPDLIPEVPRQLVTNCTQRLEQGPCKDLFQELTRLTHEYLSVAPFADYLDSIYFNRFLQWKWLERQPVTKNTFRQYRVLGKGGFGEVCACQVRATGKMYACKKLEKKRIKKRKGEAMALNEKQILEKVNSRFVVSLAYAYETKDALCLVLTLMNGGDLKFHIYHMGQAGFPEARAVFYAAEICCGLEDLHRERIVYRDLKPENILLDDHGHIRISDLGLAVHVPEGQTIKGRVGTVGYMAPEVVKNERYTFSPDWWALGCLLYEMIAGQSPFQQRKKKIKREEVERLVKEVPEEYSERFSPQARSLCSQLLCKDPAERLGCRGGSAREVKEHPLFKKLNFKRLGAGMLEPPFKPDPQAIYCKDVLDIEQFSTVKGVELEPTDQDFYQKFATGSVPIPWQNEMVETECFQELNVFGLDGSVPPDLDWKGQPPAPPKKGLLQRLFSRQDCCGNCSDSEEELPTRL

[16] = molecular target: High affinity nerve growth factor receptor (Homo sapiens) (UniProt P04629); test: Inhibition of recombinant human His-tagged TRKA (441 to 796 residues) expressed in baculovirus expression system using Tyr 01 as substrate at 10 uM incubated for 60 mins by Z'-Lyte assay relative to control
[17] = molecular target: Dual specificity mitogen-activated protein kinase kinase 1 (Homo sapiens) (UniProt Q02750); test: Inhibition of recombinant human His-tagged full length MEK1 expressed in baculovirus expression system using Ser/Thr 03 as substrate at 10 uM incubated for 60 mins by Z'-lyte assay relative to control
[18] = molecular target: Receptor-interacting serine/threonine-protein kinase 1 (Mus musculus) (UniProt Q60855); test: Inhibition of mouse RIPK1 incubated for 2 hrs by fluorescence polarization assay
Sequence of Receptor-interacting serine/threonine-protein kinase 1 (Mus musculus) (Q60855 whole entry, the tested form may be a part): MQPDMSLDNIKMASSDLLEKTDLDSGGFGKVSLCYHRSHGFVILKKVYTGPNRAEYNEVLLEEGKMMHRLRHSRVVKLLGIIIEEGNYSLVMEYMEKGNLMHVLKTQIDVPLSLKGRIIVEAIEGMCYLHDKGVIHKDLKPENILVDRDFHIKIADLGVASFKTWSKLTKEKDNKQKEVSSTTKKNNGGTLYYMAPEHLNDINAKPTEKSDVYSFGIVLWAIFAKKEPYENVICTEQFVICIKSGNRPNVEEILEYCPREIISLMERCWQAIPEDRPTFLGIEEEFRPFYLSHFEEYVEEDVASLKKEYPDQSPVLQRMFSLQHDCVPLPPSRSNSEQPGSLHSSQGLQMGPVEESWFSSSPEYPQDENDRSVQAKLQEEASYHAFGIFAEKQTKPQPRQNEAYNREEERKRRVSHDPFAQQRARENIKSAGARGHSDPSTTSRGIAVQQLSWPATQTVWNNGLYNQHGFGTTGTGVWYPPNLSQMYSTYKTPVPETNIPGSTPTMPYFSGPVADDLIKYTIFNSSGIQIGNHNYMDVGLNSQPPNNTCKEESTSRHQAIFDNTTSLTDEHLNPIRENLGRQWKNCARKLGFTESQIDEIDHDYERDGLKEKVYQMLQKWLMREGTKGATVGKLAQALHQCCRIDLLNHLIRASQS

[19] = molecular target: Tyrosine-protein kinase receptor TYRO3 (Homo sapiens) (UniProt Q06418); test: Inhibition of recombinant human GST-tagged full length RSE (451 to 890 residues) expressed in baculovirus expression system using Tyr 02 as substrate at 10 uM incubated for 60 mins by Z'-Lyte assay relative to control
[20] = molecular target: Glycogen synthase kinase-3 beta (Homo sapiens) (UniProt P49841); test: Inhibition of recombinant human N-terminal GST-tagged full length GSK3beta expressed in baculovirus expression system using Ser/Thr 09 as substrate at 10 uM incubated for 60 mins by Z'-Lyte assay relative to control
[21] = molecular target: Protein kinase C epsilon type (Homo sapiens) (UniProt Q02156); test: Inhibition of recombinant human GST-tagged full length PKCepsilon expressed in insect expression system using Ser/Thr 07 as substrate at 10 uM incubated for 60 mins by Z'-lyte assay relative to control
[22] = molecular target: Leukocyte tyrosine kinase receptor (Homo sapiens) (UniProt P29376); test: Inhibition of recombinant human GST-tagged LTK (450 to 864 residues) expressed in baculovirus expression system using Tyr 06 as substrate at 10 uM incubated for 60 mins by Z'-Lyte assay relative to control
[23] = molecular target: Protein kinase C theta type (Homo sapiens) (UniProt Q04759); test: Inhibition of recombinant human His-tagged full length PKCtheta expressed in baculovirus expression system using Ser/Thr 07 as substrate at 10 uM incubated for 60 mins by Z'-lyte assay relative to control
[24] = molecular target: Tyrosine-protein kinase JAK2 (Homo sapiens) (UniProt O60674); test: Inhibition of recombinant human GST-tagged JAK2 (809 to 1153 residues) expressed in baculovirus expression system using Tyr 06 as substrate at 10 uM incubated for 60 mins by Z'-lyte assay relative to control
Sequence of Tyrosine-protein kinase JAK2 (Homo sapiens) (O60674 whole entry, the tested form may be a part): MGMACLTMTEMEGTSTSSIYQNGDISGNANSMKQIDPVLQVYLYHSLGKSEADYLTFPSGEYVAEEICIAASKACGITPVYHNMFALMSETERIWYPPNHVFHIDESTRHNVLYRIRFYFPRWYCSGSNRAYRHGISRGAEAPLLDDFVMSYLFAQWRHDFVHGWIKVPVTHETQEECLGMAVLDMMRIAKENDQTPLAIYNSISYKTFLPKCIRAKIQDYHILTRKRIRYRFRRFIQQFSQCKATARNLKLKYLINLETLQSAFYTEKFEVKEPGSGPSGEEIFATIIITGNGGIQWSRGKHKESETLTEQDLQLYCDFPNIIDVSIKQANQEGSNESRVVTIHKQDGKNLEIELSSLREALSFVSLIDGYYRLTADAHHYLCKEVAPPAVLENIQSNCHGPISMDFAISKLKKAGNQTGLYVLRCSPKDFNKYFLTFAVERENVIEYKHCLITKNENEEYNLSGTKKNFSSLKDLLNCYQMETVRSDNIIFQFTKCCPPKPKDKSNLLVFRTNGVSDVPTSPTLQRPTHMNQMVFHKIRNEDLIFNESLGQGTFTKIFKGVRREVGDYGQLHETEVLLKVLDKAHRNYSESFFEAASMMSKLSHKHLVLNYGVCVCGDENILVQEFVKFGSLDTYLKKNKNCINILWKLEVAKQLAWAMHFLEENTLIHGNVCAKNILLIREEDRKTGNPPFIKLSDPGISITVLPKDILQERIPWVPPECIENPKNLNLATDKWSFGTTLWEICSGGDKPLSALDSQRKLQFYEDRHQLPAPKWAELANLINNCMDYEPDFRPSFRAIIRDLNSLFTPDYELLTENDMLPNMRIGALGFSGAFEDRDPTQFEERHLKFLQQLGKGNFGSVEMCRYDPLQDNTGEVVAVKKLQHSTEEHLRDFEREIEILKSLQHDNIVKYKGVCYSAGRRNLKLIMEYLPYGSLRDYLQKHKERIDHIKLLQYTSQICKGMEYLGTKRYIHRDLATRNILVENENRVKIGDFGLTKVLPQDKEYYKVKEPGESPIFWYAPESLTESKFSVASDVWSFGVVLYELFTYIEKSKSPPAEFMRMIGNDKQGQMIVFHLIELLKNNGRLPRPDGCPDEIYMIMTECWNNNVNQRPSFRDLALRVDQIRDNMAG

**Q.** With `CN1C(=O)[C@@H](NC(=O)c2n[nH]c3ncc(C(F)(F)C(F)(F)F)cc23)COc2ccccc21` as the compound, how does the inhibition [1] read?
**A.** 0%

**Q.** And the inhibition [2]?
**A.** 6%

**Q.** And the inhibition [3]?
**A.** -4.5%

**Q.** And the inhibition [4]?
**A.** 6.5%

**Q.** And the inhibition [5]?
**A.** -2%

**Q.** What about the inhibition [6] of the same compound?
**A.** 7%

**Q.** What about the inhibition [7] of the same compound?
**A.** -0.5%

**Q.** And the inhibition [8]?
**A.** 2%

**Q.** And the inhibition [9]?
**A.** 4%

**Q.** What about the inhibition [10] of the same compound?
**A.** -3.5%

**Q.** What about the half-life [11] of the same compound?
**A.** 4.8 h

**Q.** What about the inhibition [12] of the same compound?
**A.** 17.5%

**Q.** What about the inhibition [13] of the same compound?
**A.** 6%

**Q.** And the inhibition [14]?
**A.** -5%

**Q.** What about the inhibition [15] of the same compound?
**A.** -0.5%

**Q.** And the inhibition [16]?
**A.** 3%

**Q.** What about the inhibition [17] of the same compound?
**A.** -6.5%

**Q.** And the inhibition [18]?
**A.** inactive

**Q.** What about the inhibition [19] of the same compound?
**A.** 1.5%

**Q.** What about the inhibition [20] of the same compound?
**A.** 14.5%

**Q.** And the inhibition [21]?
**A.** -6%

**Q.** And the inhibition [22]?
**A.** 2%

**Q.** And the inhibition [23]?
**A.** 2%

**Q.** What about the inhibition [24] of the same compound?
**A.** 0%
